Measured values as given in ChEMBL document CHEMBL4823280, “Efficient Synthesis of Icetexane Diterpenes and Apoptosis Inducing Effect by Upregulating BiP-ATF4-CHOP Axis in Colorectal Cells” (J Nat Prod, 2021).
Activity calls are given as the source filed them. No cut-off for these calls is given here.

Assays:
HCT-116 [1] = experiment: Cytotoxicity against human HCT-116 cells assessed as reduction in cell viability measured after 48 hrs by MTT assay; assay type: functional, cell-based; conditions: HCT-116, 48 h
Caco-2 = experiment: Cytotoxicity against human Caco-2 cells assessed as reduction in cell viability measured after 48 hrs by MTT assay; assay type: functional, cell-based; conditions: Caco-2, 48 h
COLO 205 = experiment: Cytotoxicity against human COLO 205 cells assessed as reduction in cell viability measured after 48 hrs by MTT assay; assay type: functional, cell-based; conditions: COLO 205, 48 h
HCT-116 [2] = experiment: Induction of ER stress in human HCT-116 cells assessed as upregulation of CHOP expression at 5 to 20 uM measured after 6 hrs by western blotting analysis; assay type: functional, cell-based; conditions: dose 5-20 µM
HCT-116 [3] = experiment: Induction of ER stress in human HCT-116 cells assessed as increase in BiP protein expression measured after 6 hrs by western blotting analysis; assay type: functional, cell-based; conditions: dose 5-20 µM
HCT-116 [4] = experiment: Inhibition of colony formation in human HCT-116 cells at 1.25 to 10 uM incubated for 14 days by crystal violet staining based analysis; assay type: functional, cell-based; conditions: dose 1.25-10 µM, time 14.0 day
HCT-116 [5] = experiment: Induction of ER stress in human HCT-116 cells assessed as colocalization of BiP with ATF4 at 20 uM measured after 12 hrs by immunofluorescence staining analysis; assay type: functional, cell-based
HCT-116 [6] = experiment: Induction of apoptosis in human HCT-116 cells assessed as viable cells at 10 uM measured after 24 hrs by Annexin V-FITC/PI staining based flow cytometry analysis (Rvb= 88.45%); assay type: functional; conditions: read-out: Activity
HCT-116 [7] = experiment: Induction of apoptosis in human HCT-116 cells assessed as late apoptotic cells at 5 uM measured after 24 hrs by Annexin V-FITC/PI staining based flow cytometry analysis (Rvb= 2.89%); assay type: functional
HCT-116 [8] = experiment: Induction of apoptosis in human HCT-116 cells assessed as early apoptotic cells at 10 uM measured after 24 hrs by Annexin V-FITC/PI staining based flow cytometry analysis (Rvb= 7.48%); assay type: functional
HCT-116 [9] = experiment: Induction of apoptosis in human HCT-116 cells assessed as late apoptotic cells at 10 uM measured after 24 hrs by Annexin V-FITC/PI staining based flow cytometry analysis (Rvb= 2.89%); assay type: functional
HCT-116 [10] = experiment: Induction of apoptosis in human HCT-116 cells assessed as necrotic cells at 10 uM measured after 24 hrs by Annexin V-FITC/PI staining based flow cytometry analysis (Rvb= 1.18%); assay type: functional
HCT-116 [11] = experiment: Induction of apoptosis in human HCT-116 cells assessed as early apoptotic cells at 5 uM measured after 24 hrs by Annexin V-FITC/PI staining based flow cytometry analysis (Rvb= 7.48%); assay type: functional
HCT-116 [12] = experiment: Induction of ER stress in human HCT-116 cells assessed as increase in BiP nuclear translocation at 2.5 to 10 uM measured after 6 hrs by DAPI based immunostaining analysis; assay type: functional, cell-based; conditions: dose 2.5-10 µM
HCT-116 [13] = experiment: Induction of apoptosis in human HCT-116 cells assessed as viable cells at 5 uM measured after 24 hrs by Annexin V-FITC/PI staining based flow cytometry analysis (Rvb= 88.45%); assay type: functional; conditions: read-out: Activity
HCT-116 [14] = experiment: Induction of ER stress in human HCT-116 cells assessed as upregulation of ATF4 expression at 5 to 20 uM measured after 6 hrs by western blotting analysis; assay type: functional, cell-based; conditions: dose 5-20 µM
[15] = Stability of the compound in human HCT-116 cells assessed as Demethylsalvicanol-Quione formation measured after 72 hrs by HPLC analysis; assay type: ADME, cell-based; conditions: hct-116, 72 h
HCT-116 [16] = experiment: Induction of apoptosis in human HCT-116 cells assessed as necrotic cells at 5 uM measured after 24 hrs by Annexin V-FITC/PI staining based flow cytometry analysis (Rvb= 1.18%); assay type: functional

Row | SMILES | IC50 (HCT-116 [1]) [µM] | IC50 (Caco-2) [µM] | IC50 (COLO 205) [µM] | further results
1 | O=c1[nH]cc(F)c(=O)[nH]1 [FLUOROURACIL] | 7.38 | 7.77 | 5.29 | 
2 | CC(C)c1cc2c(c(O)c1O)C[C@@]13CCCC(C)(C)[C@@H]1C[C@@H]2O3 [BRUSSONOL] | > 20.2 | > 20.2 | > 20.2 | 
3 | CC(C)c1cc2c(c(O)c1O)CC1=CCCC(C)(C)[C@@H]1CC2 | > 20.9 | 13.7 | > 20.9 | 
4 | CC(C)c1cc2c(c3c1O[C@@]1(C(C)C)C(=O)C(=O)C4=C(CC[C@H]5C(C)(C)CCC[C@]5(O)C4)[C@H]1O3)C[C@@]1(O)CCCC(C)(C)[C@@H]1CC2 | 2.7 | 2.69 | 3.39 | Activity (HCT-116 [2]): Active; Activity (HCT-116 [3]): Dose-Dependent Effect; inhibition (HCT-116 [4]): Active; Activity (HCT-116 [5]): Active; viability at 10 µM (HCT-116 [6]): 58.8%; Activity (HCT-116 [7]): 16.43%; Activity (HCT-116 [8]): 13.38%; Activity (HCT-116 [9]): 19.84%; Activity (HCT-116 [10]): 7.97%; Activity (HCT-116 [11]): 14.73%; Activity (HCT-116 [12]): Active; viability at 5 µM (HCT-116 [13]): 63.6%; Activity (HCT-116 [14]): Active; Stabilty [15]: Stable; Activity (HCT-116 [16]): 5.28%
5 | CC(=O)Oc1c(C(C)C)cc2c(c1OC(C)=O)C[C@@]13O[C@@H]1CCC(C)(C)[C@@H]3CC2 | 11.1 | 13.8 | 7.52 | 
6 | CC(C)C1=CC2=C(C[C@@]3(O)CCCC(C)(C)[C@@H]3CC2)C(=O)C1=O | 2.93 | 2.71 | 3.18 | 
7 | CC(=O)Oc1c(C(C)C)cc2c(c1OC(C)=O)CC1=CCCC(C)(C)[C@@H]1CC2 | 18.6 | 10.4 | 18.5 | 
8 | CC(C)C1=CC2=C(C[C@@]34CCCC(C)(C)[C@@H]3C[C@@H]2O4)C(=O)C1=O | 13.3 | 3.86 | 10.4 | 
9 | CC(C)c1cc2c(c(O)c1O)C[C@@]1(O)CCCC(C)(C)[C@@H]1CC2 | 18.8 | 3.07 | 11.2 | 
10 | CC(C)c1cc2c(c(O)c1O)C=C1C=CCC(C)(C)[C@@H]1CC2 | 10.6 | 7.2 | 7.81 | 
